Assay [1] relates to IRF3 signaling pathway (IRF-inducible ISG54 promotor) in THP1-Lucia ISG cells. Description: THP1-Lucia ISG reporter assay: induction of IRF3-dependent luciferase activity. To be noted: Homo sapiens, PMA-differentiated cells, 18 h after stimulation, read-out: THP1 ISG: fold increase of IRF3-dependent luciferase activity over background; for fold induction at 10 µM: 10 μM compound. The assay is classed as cell-based. On the procedure:
The compounds were evaluated in the THP1-Lucia™ ISG (interferon stimulated genes) reporter assay to determine if the compounds activate the IRF3 signaling pathway. The THP1-Lucia™ cells (InvivoGen) express the secreted luciferase (Lucia) reporter gene under the control of an IRF-inducible promotor. The reporter cell line was developed from human monocytic leukemia THP-1 cells.
(§1) The promotor was comprised of five IFN-stimulated response elements (ISRE) fused to an ISG54 minimal promotor which is unresponsive to NF-kB or AP-1 pathways. […] The IRF3-deficient THP1-Lucia™ ISG IRF3 −/− reporter cell line was generated by CRISPR technology from the parent THP1-Lucia™ ISG reporter cell line.
(§2) 5 THP1-Lucia™ ISG cells and IRF3-deficient THP1-Lucia™ ISG IRF3 −/− cells were differentiated with PMA (100 ng/ml) and stimulated with compounds at the indicated concentrations (5 to 20 μM), positive control, or not treated (background). Luciferase secretion was quantified using the QUANTI-Luc luciferase assay system (InvivoGen) 18 h after stimulation. Data are shown as fold increase luciferase activity over background in Table 7 and represent the IRF3-dependent ISG54 promotor activity by the THP1-Lucia™ ISG cells in response to compounds. […] The fold increase of compounds (10 μM, *20 μM, **5 μM) induced IRF3 dependent luciferase activity is indicated as follows: “−” indicates less than 2.4 fold increase; “+” indicates a 2.4-4.9 fold increase; “++” indicates a 5-9.9 fold increase; “+++” indicates a 10-19 fold increase; “++++” indicates a 20-39 fold increase; “+++++” indicates greater than or equal to 40 fold increase.

The test system of assay [2] is THP1-Lucia ISG IRF3 −/− cells. Description: IRF3-deficient THP1-Lucia ISG IRF3 −/− reporter assay (counter-screen). The assay is classed as cell-based. Particulars: Homo sapiens, 18 h after stimulation, read-out: THP1 ISG IRF3 −/−: fold increase of luciferase activity over background; for fold induction at 10 µM: 10 μM compound. On the procedure:
as §1, §2

Assay [3] deals with CXCL10 secretion by CT26 cells. In words: RIG-I dependent CXCL10 secretion by CT26 colon carcinoma cells (ELISA). Format: cell-based, murine. To be noted: 10 μM compound, 24 h. On the procedure: (§3) The CT26 murine colon carcinoma cell line (ATCC) was used to evaluate the induction of CXCL10 secretion. CXCL10 is an important chemokine in tumor immune biology that recruits tumor-specific T cells to the tumor. To confirm that compound-mediated CXCL10 production was RIG-I specific, RIG-I deficient CT2-RIG-1−/− cells were generated by Kineta using CRISPR technology.
(§4) CT26 cells were seeded at a density of 1×10^4 cells per well on a 96-well tissue culture plate in 100 μL of cell culture and cells were incubated at 37° C. and 5% CO2 for 24 hr. Next, CT26 cells were treated with compounds at the indicated concentrations. CXCL10 was quantified by ELISA from supernatants taken 24 h after compound stimulation by use of the CXCL10 DuoSet ELISA kit (Cat # DY466, R&D, Minneapolis, Minn., USA) according to the manufacturer's instructions.
(§5) CXCL10 secretion by CT26 cells in response to compounds (in an amount of 5 to 20 μM) of the present disclosure is shown in Table 8. The compound-induced CXCL10 production was RIG-I dependent, since none of the compounds mediated CXCL10 secretion in RIG-I deficient CT26 RIG-1−/− cells. The compounds (10 μM, *20 μM, **5 μM) are indicated in the table as follows: “−” indicates less than 100 pg/mL; “+” indicates 100-199 pg/mL; “++” indicates 200-399 pg/mL; “+++” indicates 400-799 pg/mL; “++++” indicates 800 to 1599 pg/mL; “+++++” indicates greater than or equal to 1600 pg/ml.

Assay [4] concerns RIG-I deficient CT26 RIG-1−/− cells. In words: CXCL10 secretion in RIG-I deficient CT26 RIG-1−/− cells (ELISA). Format: cell-based, murine. To be noted: 10 μM compound, 24 h. On the procedure:
as §3, §4, §5

SMILES strings stand for the structures. Some results are limits rather than exact numbers.

`O=C(Nc1nc2cccc(C(F)(F)F)c2s1)c1ccc2ccccc2c1` [Example 11, N-[7-(trifluoromethyl)-1,3-benzothiazol-2-yl]naphthalene-2-carboxamide]: the fold induction at 10 µM in assay [1] was 10 to 19; in assay [2], below 2.4. The “CXCL10 secretion by CT26 cells” value in assay [3] is recorded as “++ (“++” indicates 200-399 pg/mL)”. Moreover, the “CXCL10 secretion by CT26 RIG-I −/− cells” value in assay [4] was “− (“−” indicates less than 100 pg/mL)”.

As for `O=C(Cc1ccc2nc(NC(=O)c3ccc4ccccc4c3)sc2c1)NC1CC1` [Example 12, N-{6-[(cyclopropyl-carbamoyl)methyl]-1,3-benzothiazol-2-yl}naphthalene-2-carboxamide], the results for the fold induction at 20 µM in assay [1] (20 μM compound (*)) and in assay [2] (20 μM compound (*)) were 2.4 to 4.9 and below 2.4, respectively. Besides, the “CXCL10 secretion by CT26 cells” value in assay [3] is given as “+++ (“+++” indicates 400-799 pg/mL)”. Also, in assay [4], the “CXCL10 secretion by CT26 RIG-I −/− cells” value is “− (“−” indicates less than 100 pg/mL)”.

Take `O=C(Nc1nc2ccc(C(=O)Nc3c(Cl)cccc3Cl)cc2s1)c1ccc2ccccc2c1` [Example 13, N-(2,6-dichlorophenyl)-2-(naphthalene-2-amido)-1,3-benzothiazole-6-carboxaraide]: the fold induction at 10 µM in assay [1] is 20 to 39; in assay [2] it was below 2.4. Moreover, the “CXCL10 secretion by CT26 cells” value in assay [3] is on record as “+++++ (“+++++” indicates greater than or equal to 1600 pg/ml)”. For the same compound, in assay [4], the “CXCL10 secretion by CT26 RIG-I −/− cells” value is “− (“−” indicates less than 100 pg/mL)”.

As for `O=C(Nc1ccccn1)c1ccc2nc(NC(=O)c3ccc4ccccc4c3)sc2c1` [Example 14, 2-(naphthalene-2-amido)-N-(pyridin-2-yl)-1,3-benzo-thiazole-6-carboxamide], the fold induction at 10 µM is 20 to 39 in assay [1] and below 2.4 in assay [2]. Further, the “CXCL10 secretion by CT26 cells” value in assay [3] is recorded as “++++ (“++++” indicates 800 to 1599 pg/mL)”. The “CXCL10 secretion by CT26 RIG-I −/− cells” value in assay [4] is given as “− (“−” indicates less than 100 pg/mL)”.

Regarding `O=C(Nc1nc2ccc(C(=O)Nc3c(Cl)cccc3Cl)cc2s1)c1ccc2ncccc2c1` [Example 15, N-{6-[(2,6-dichlorophenyl)carbamoyl]-1,3-benzothiazol-2-yl}quinoline-6-carboxamide], the figures for the fold induction at 10 µM in assay [1] and in assay [2] were 20 to 39 and below 2.4, respectively. The “CXCL10 secretion by CT26 cells” value in assay [3] was “++++ (“++++” indicates 800 to 1599 pg/mL)”. In addition, the “CXCL10 secretion by CT26 RIG-I −/− cells” value in assay [4] is “− (“−” indicates less than 100 pg/mL)”.

Turning to `O=C(Nc1nc2ccc(S(=O)(=O)N3CCOCC3)cc2s1)c1cc2ccccc2cc1OCCN1CCOCC1` [Example 16, 3-[2-(morpholin-4-yl)ethoxy]-N-[6-(morpholine-4-sulfonyl)-1,3-benzothiazol-2-yl]naphthalene-2-carboxamide], the fold induction at 10 µM in assay [1] was 20 to 39; in assay [2], below 2.4. The “CXCL10 secretion by CT26 cells” value in assay [3] was “++++ (“++++” indicates 800 to 1599 pg/mL)”. For the same compound, in assay [4], the “CXCL10 secretion by CT26 RIG-I −/− cells” value is given as “− (“−” indicates less than 100 pg/mL)”.

In the case of `O=C(Nc1nc2ccc(S(=O)(=O)N3CCOCC3)cc2s1)c1cc2ccccc2cc1OCCCCN1CCOCC1` [Example 17, 3-[4-(morpholin-4-yl)butoxy]-N-[6-(morpholine-4-sulfonyl)-1,3-benzothiazol-2-yl]naphthalene-2-carboxamide], the fold induction at 10 µM in assay [1] was 10 to 19; in assay [2], below 2.4. Besides, the “CXCL10 secretion by CT26 cells” value in assay [3] is “+++ (“+++” indicates 400-799 pg/mL)”. Further, the “CXCL10 secretion by CT26 RIG-I −/− cells” value in assay [4] is reported as “− (“−” indicates less than 100 pg/mL)”.

`O=C(Nc1nc2ccc(Cc3ccccc3)cc2s1)c1cc2ccccc2cc1OCCN1CCOCC1` [Example 18, N-(6-benzyl-1,3-benzothiazol-2-yl)-3-[2-(morpholin-4-yl)ethoxy]naphthalene-2-carboxamide]: the results for the fold induction at 10 µM in assay [1] and in assay [2] were 2.4 to 4.9 and below 2.4, respectively. The “CXCL10 secretion by CT26 cells” value in assay [3] is listed as “+ (“+” indicates 100-199 pg/mL)”. Further, in assay [4], the “CXCL10 secretion by CT26 RIG-I −/− cells” value is recorded as “− (“−” indicates less than 100 pg/mL)”.
